Assay results from PMC5429603, “Discovery and characterization of verinurad, a potent and specific inhibitor of URAT1 for the treatment of hyperuricemia and gout” (Scientific Reports, 2017).

Columns and labels:
[1] = molecular target: T1, human URAT1 h-V18L (Homo sapiens, UniProt Q96S37, V18L); test: URAT1 activity assay, h-V18L; type: cell-based; conditions: TM1 point mutant, read-out: Verinurad affinity (IC50)
T1 construct: expressed in transfected cells; host or cells: HEK-293T
Excerpt: (§1) Human URAT1 (GenBank BC053348.1, Homo sapiens SLC22A12), rat URAT1 (NCBI NM_001034943.1, Rattus norvegicus Slc22a12) and human OAT4 (NCBI NM_018484.2, Homo sapiens SLC22A11) genes were purchased from Origene Technologies, Inc. and subcloned into pCMV6/neo using NotI. Where indicated, controls transfections used pCMV6/neo. Mutants were produced by site-directed mutagenesis using the QuikChange Lightning Multi Site-Directed Mutagenesis Kit (Agilent Technologies). […] Mutagenic primer sequences are provided in ref. [15] and mutagenic primer sequences for previously unreported mutants shown in Supplementary Table 1. All constructs used in this study were untagged. Human OAT1 was purchased from Fisher Scientific (catalog # MHS1010–7508183 in pSPORT6, NCBI NM_153276.2, Homo sapiens SLC22A6).
(§2) HEK-293T cells were maintained in DMEM/high glucose/L-glutamine/HEPES supplemented with 1 mM sodium pyruvate (Life Technologies) and 10% FBS (PAA Laboratories) at 37 °C in 5% CO2. […]
(§3) URAT1 and OAT4 activity assays were performed in assay buffer consisting of 25 mM MES pH 5.5 (from a 1 M MES solution [Sigma] adjusted to pH 5.5 with sodium hydroxide), 125 mM sodium gluconate, 4.8 mM potassium gluconate, 1.2 mM monobasic potassium phosphate, 1.2 mM magnesium sulfate, 1.3 mM calcium gluconate and 5.6 mM glucose. […] Each treatment was measured in triplicate.

[2] = molecular target: T2, human URAT1 h-T21A (Homo sapiens, UniProt Q96S37, T21A); test: URAT1 activity assay, h-T21A; type: cell-based; conditions: TM1 point mutant, read-out: Verinurad affinity (IC50)
T2 construct: expressed in transfected cells; host or cells: HEK-293T
T2 sequence (Q96S37 whole entry T21A): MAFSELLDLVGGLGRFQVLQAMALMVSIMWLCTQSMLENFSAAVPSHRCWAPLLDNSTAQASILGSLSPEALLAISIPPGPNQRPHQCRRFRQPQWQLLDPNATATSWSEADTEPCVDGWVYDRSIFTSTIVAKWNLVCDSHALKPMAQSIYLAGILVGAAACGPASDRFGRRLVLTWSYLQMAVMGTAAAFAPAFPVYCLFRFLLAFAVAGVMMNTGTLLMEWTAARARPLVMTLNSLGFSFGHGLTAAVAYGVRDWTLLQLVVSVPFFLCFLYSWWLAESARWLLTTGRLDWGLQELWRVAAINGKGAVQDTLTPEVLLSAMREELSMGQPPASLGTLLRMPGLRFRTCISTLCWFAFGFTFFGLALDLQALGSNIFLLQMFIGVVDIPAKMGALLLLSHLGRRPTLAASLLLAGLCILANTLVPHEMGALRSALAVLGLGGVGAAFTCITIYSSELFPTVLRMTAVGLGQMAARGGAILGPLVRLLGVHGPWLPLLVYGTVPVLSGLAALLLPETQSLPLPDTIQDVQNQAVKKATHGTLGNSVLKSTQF
Excerpt: as §1, §2, §3

[3] = molecular target: T3, human URAT1 h-M29L (Homo sapiens, UniProt Q96S37, M29L); test: URAT1 activity assay, h-M29L; type: cell-based; conditions: TM1 point mutant, read-out: Verinurad affinity (IC50)
T3 construct: expressed in transfected cells; host or cells: HEK-293T
T3 sequence (Q96S37 whole entry M29L): as the sequence (Q96S37 whole entry T21A) above, with A21T, M29L counted along it
Excerpt: as §1, §2, §3

[4] = molecular target: T4, human URAT1 h-L31V (Homo sapiens, UniProt Q96S37, L31V); test: URAT1 activity assay, h-L31V; type: cell-based; conditions: TM1 point mutant, read-out: Verinurad affinity (IC50)
T4 construct: expressed in transfected cells; host or cells: HEK-293T
T4 sequence (Q96S37 whole entry L31V): as the sequence (Q96S37 whole entry T21A) above, with A21T, L31V counted along it
Excerpt: as §1, §2, §3

[5] = molecular target: T5, human URAT1-F365Y (Homo sapiens, UniProt Q96S37, F365Y); test: URAT1 activity assay, h-F365Y; type: cell-based
T5 construct: expressed in transfected cells; host or cells: HEK-293T
T5 sequence (Q96S37 whole entry F365Y): as the sequence (Q96S37 whole entry T21A) above, with A21T, F365Y counted along it
Excerpt: as §1, §2, §3

[6] = molecular target: T6, rat URAT1 r-T32C (Rattus norvegicus, UniProt Q3ZAV1, T32C); test: URAT1 activity assay, r-T32C; type: cell-based
T6 construct: expressed in transfected cells; host or cells: HEK-293T
T6 sequence (Q3ZAV1 whole entry T32C): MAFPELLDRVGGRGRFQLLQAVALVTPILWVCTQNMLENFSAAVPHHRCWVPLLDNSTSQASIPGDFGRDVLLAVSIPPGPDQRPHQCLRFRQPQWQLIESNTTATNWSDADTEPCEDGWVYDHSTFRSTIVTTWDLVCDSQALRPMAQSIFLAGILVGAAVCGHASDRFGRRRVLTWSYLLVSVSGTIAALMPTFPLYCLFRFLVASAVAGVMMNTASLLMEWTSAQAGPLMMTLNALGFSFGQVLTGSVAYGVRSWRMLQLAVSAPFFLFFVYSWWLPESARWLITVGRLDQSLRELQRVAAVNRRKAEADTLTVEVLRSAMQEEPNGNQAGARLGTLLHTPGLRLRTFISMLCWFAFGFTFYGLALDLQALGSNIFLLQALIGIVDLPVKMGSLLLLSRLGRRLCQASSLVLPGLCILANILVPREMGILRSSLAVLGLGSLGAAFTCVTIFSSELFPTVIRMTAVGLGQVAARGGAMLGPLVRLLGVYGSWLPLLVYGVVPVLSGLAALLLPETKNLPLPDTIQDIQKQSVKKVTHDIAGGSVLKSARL
Excerpt: as §1, §2, §3

[7] = molecular target: T7, rat URAT1 r-M481I (Rattus norvegicus, UniProt Q3ZAV1, M481I); test: URAT1 activity assay, r-M481I; type: cell-based
T7 construct: expressed in transfected cells; host or cells: HEK-293T
T7 sequence (Q3ZAV1 whole entry M481I): as the sequence (Q3ZAV1 whole entry T32C) above, with C32T, M481I counted along it
Excerpt: as §1, §2, §3

[8] = molecular target: T8, human URAT1 h-R477K (Homo sapiens, UniProt Q96S37, R477K); test: URAT1 activity assay, h-R477K; type: cell-based
T8 construct: expressed in transfected cells; host or cells: HEK-293T
T8 sequence (Q96S37 1-553 R477K): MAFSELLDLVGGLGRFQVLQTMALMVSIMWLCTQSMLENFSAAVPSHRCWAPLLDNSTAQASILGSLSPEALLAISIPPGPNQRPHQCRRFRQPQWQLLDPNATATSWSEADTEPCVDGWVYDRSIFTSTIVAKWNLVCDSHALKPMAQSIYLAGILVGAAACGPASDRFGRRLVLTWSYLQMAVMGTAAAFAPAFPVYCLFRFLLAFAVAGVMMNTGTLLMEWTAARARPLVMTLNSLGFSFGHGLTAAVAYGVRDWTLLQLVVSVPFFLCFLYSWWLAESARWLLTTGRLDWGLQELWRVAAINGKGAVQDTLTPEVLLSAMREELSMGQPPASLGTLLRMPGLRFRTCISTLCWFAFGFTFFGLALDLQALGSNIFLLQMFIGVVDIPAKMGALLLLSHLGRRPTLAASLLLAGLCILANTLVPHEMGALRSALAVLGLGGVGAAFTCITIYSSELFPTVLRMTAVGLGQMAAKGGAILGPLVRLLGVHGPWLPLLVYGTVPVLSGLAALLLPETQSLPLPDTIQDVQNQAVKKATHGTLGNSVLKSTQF
Excerpt: as §1
HEK-293T cells were maintained in DMEM/high glucose/L-glutamine/HEPES supplemented with 1 mM sodium pyruvate (Life Technologies) and 10% FBS (PAA Laboratories) at 37 °C in 5% CO2. To express URAT1, OAT4 or OAT1, plasmids were reverse transfected into HEK-293T cells. DNA (10 µg) was mixed with 30 µl of DreamFect Gold (Boca Scientific) in 2 ml OptiMem (Life Technologies). After 20 minutes, 18 ml of media containing 2 × 10^7 cells in suspension was added and mixed, and 200 µl per well were plated onto white clear-bottomed poly-D-lysine coated 96-well plates (BD Biosciences). The cells were assayed the following day.
URAT1 and OAT4 activity assays were performed in assay buffer consisting of 25 mM MES pH 5.5 (from a 1 M MES solution [Sigma] adjusted to pH 5.5 with sodium hydroxide), 125 mM sodium gluconate, 4.8 mM potassium gluconate, 1.2 mM monobasic potassium phosphate, 1.2 mM magnesium sulfate, 1.3 mM calcium gluconate and 5.6 mM glucose. URAT1 inhibitors were serially diluted into assay buffer and added to the cells for 5 minutes prior to addition of substrate. URAT1-expressing cells were incubated with 100 µM ^14C-uric acid for 10 minutes and OAT4-expressing cells were incubated with 20 µM carboxyfluorescein (Life Technologies, Inc.) for 5 minutes. Cells were then washed three times in 25 mM MES pH 5.5/125 mM sodium gluconate, and solubilized in Ultima Gold (Perkin Elmer) prior to liquid scintillation counting. Each treatment was measured in triplicate.

[9] = molecular target: T9, human URAT1-F449Y (Homo sapiens, UniProt Q96S37, F449Y); test: URAT1 binding assay with 3H-verinurad, h-F449Y membranes
T9 construct: expressed in transfected cells; host or cells: HEK-293T
T9 sequence (Q96S37 whole entry F449Y): as the sequence (Q96S37 whole entry T21A) above, with A21T, F449Y counted along it
Method: The plates were then subjected to scintillation counting. All samples were assayed in triplicate.

[10] = system: healthy human volunteers; set-up: method as in PMID 28744099; conditions: humans; cited from earlier work

T1 sequence (Q96S37 whole entry V18L): as the sequence (Q96S37 whole entry T21A) above, with V18L, A21T counted along it

IC50 [1]: 26 ± 15 nM
IC50 [2]: 26 ± 12 nM
IC50 [3]: 11 ± 2.9 nM
IC50 [4]: 31 ± 10 nM
fold lower affinity relative to human URAT1 [5]: 160 fold
IC50 ([5]; TM7 point mutant, read-out: Verinurad affinity (IC50)): 4000 ± 1700 nM
fold increase in affinity relative to rat URAT1 [6]: 1.4 fold
IC50 ([6]; TM1 point mutant, read-out: Verinurad affinity (IC50)): 29000 ± 3100 nM
fold increase in affinity compared to rat URAT1 [7]: 4 fold
IC50 ([7]; TM11 point mutant, read-out: Verinurad affinity (IC50)): 11000 ± 3100 nM
fold reduced affinity compared to human URAT1 ([8]; h-R477K): 9 fold
IC50 ([8]; h-R477K binding site point mutant): 230 nM
IC50 ([9]; h-F449Y membranes, read-out: IC50, inhibition of 3H-verinurad binding to h-F449Y): 5.9 nM
fold reduced potency at h-F449Y compared to wild type human URAT1, binding assay ([9]; h-F449Y vs human URAT1): the same affinity
Structure (SMILES): CC(C)(Sc1ccncc1-c1ccc(C#N)c2ccccc12)C(=O)O [Verinurad, 2-((3-(4-cyanonaphthalen-1-yl)pyrindin-4-yl)thio)-2-methylpropanoic acid]
dose that significantly lowers sUA levels [10]: ≥ 5 mg
